The results in this text go back to US11591353B2 (Mindset Pharma Inc., priority 2020, dated 2023).

The target in one test is human 5-HT2A receptor (Homo sapiens (Human), UniProt P28223). Nature of the test: Radioligand binding assay on human 5-HT2A receptor ([3H]-ketanserin). Here is the method:
i. Prepare the assay buffer following the table below;
ii. Preparation of 8 doses of reference and test compounds starting from 10 mM stock solution as requested by 5-fold serial dilutions with 100%;
iii. […] a. Add 50 μl/well of 0.5% (v/v) PEI to UniFilter-96 GF/B plates. Seal the plates and incubate at 4° C. for 3 hrs; b. After incubation, wash the plates 3 times with ice-cold wash buffer (50 mM Tris, pH7.4);
iv. Preparation of assay plates: a. Dilute cell membrane with assay buffer and add 330 μl/well to 96 round deep well plates to reach a concentration of 20 μg/well; b. […] Dilute [3H]-ketanserin with assay buffer to 5 nM (5× final concentration) and add 110 μl/well to 96 round deep well plates.
v. Centrifuge the plate at 1000 rpm for 30 secs and then agitate at 600 rpm, R.T. for 5 min.
vii. Stop the incubation by vacuum filtration onto GF/B filter plates followed by 4 times washing with ice-cold wash buffer (50 mM Tris, pH7.4).
ix. […]
For reference and exemplary test compounds of the application, the results are expressed as % Inhibition, using the normalization equation: N=100−100×(U−C2)/(C1−C2), where U is the unknown value, C1 is the average of high controls, and C2 is the average of low controls. The IC50 is determined by fitting percentage of inhibition as a function of compound concentrations with Hill equation using XLfit.

The next test has as its system male C57 BL6 mice. The test can be described thus: Mouse head-twitch response (HTR). Type of test: in vivo. The conditions noted are these: head twitches over a 1 h period, FIG. 1 and FIG. 2. As for the experimental part: FIG. 1 is a graph showing the effect of various doses of exemplary compound of Formula I, I-28, on head-twitch response (HTR) in male C57 BL6 mice. The mice were treated with compound I-28 ([…]) by PO route (N=6 mice/dose), and the total number of head twitches were recorded over a 1 h period. Data is expressed as mean±SEM. The induction of head twitches elicited by 5-HT2A receptor agonists is believed to represent a behavioural proxy of their psychedelic effects.
The mice were treated with compound MSP-1007 (0.03-10 mg/kg) by SC route (N=6 mice/dose), and the total number of head twitches were recorded over a 1 h period. Data is expressed as mean±SEM. […]
The effect of different doses of exemplary compound I-28 of Formula I and its active metabolite were evaluated on head-twitch response (HTR) as a behavior-based model of psychedelic activity.
Male, C57 BL/6 J mice (body weight range 20-30 g) were dosed with the appropriate dose of test article, and following a 1-minute pre-treatment time, placed in individual observation chambers. Animals were visually assessed for the incidence head twitches continuously over a 1 hr period. […] Each head twitch was individually counted by a trained observer, and the data expressed as the mean±SEM of 6-10 mice per group. […]

A word on the IC50: it is the midpoint of a concentration-inhibition curve. A high value points to lower potency. As to `[2H]C([2H])([2H])N(C([2H])([2H])[2H])C([2H])([2H])C([2H])([2H])c1c[nH]c2cccc(OC(=O)CCCCCCC/C=C\C/C=C\CCCCC)c12` [Compound I-28, 3-(2-(bis(methyl-d3)amino)ethyl-1,1,2,2-d4)-1H-indol-4-yl (9Z,12Z)-octadeca-9,12-dienoate], the IC50 at human 5-HT2A receptor stood at 516 nM.

As for `[2H]C([2H])([2H])N(C([2H])([2H])[2H])C([2H])([2H])C([2H])([2H])c1c[nH]c2cccc(O)c12` [Compound I-45, 3-(2-(bis(methyl-d3)amino)ethyl-1,1,2,2-d4)-1H-indol-4-ol], the “efficacy to induce head twitch (in words)” value with male C57 BL6 mice is given as “greater efficacy to induce head twitch than the exemplary prodrug I-28”.
